Experimental data taken from patent publication US20250197374A1, “WEE1 DEGRADING COMPOUNDS AND USES THEREOF” (BRISTOL-MYERS SQUIBB COMPANY, priority 2023, published 2025).

Tests used:
Format in all cases: cell-based
WEE1 = target: T1, WEE1 (Homo sapiens, UniProt P30291+Q96SW2); experiment: WEE1-ePL degradation assay (293T-LentiX, InCELL Hunter luminescence, 4 hr); conditions: for DC50: LentiX-HEK293T cells expressing WEE1-ePL, 4 hr incubation, read-out: 293T-LentiX WEE1-ePL Degradation 4 hr EC50; for 293T-LentiX WEE1-ePL Degradation 4 hr YMin (%): lower limit of fit, % of DMSO control signal remaining
T1 construct: C-terminal ePL-tagged (DiscoverX, Fremont, CA) full-length WEE1 expression construct; expressed in transfected cells; host or cells: LentiX-HEK293T (Invitrogen), lentivirally transduced; the cells also over-express GSPT1-GN
Procedure, shortened: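 LentiX-HEK293T cells expressing C-terminally ePL-tagged full-length WEE1 plus non-degradable GSPT1-GN (G575N, N-terminal 158 aa truncated). Treated 4 h at 37 °C with a 10-point, 3-fold series from 1 or 10 µM, then read by InCELL Hunter luminescence. EC50 from four-parameter logistic fit, Ymax set by DMSO control.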

MKN45 cells = experiment: MKN45 cell proliferation assay (Cell-Titer-Glo, 120 hr); conditions: for EC50: Homo sapiens, MKN-45, 120 h, read-out: MKN45 Cell Prolif. 120 hr EC50; for MKN45 Cell Prolif. 120 hr YMin (%): minimal percent of DMSO control observed
Procedure, shortened: (§1)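 MKN45 (400/well) and MDA-MB-231 (800/well) cells in RPMI with 10% FBS were exposed to 10-point half-log doses from 1 or 10 uM (0.1% DMSO) for 120 h at 37 °C. Viability was read by CellTiter-Glo luminescence. EC50 came from blank-subtracted, %DMSO four-parameter fits, with Ymin-obs as the lowest %DMSO observed.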

MDA-MB-231 cells = experiment: MDA-MB-231 cell proliferation assay (Cell-Titer-Glo, 120 hr); conditions: for EC50: Homo sapiens, MDA-MB-231, 120 h, read-out: MDA-MB 231 Cell Prolif. 120 hr EC50; for MDA-MB 231 Cell Prolif. 120 hr YMin (%): minimal percent of DMSO control observed
Procedure, shortened: as §1

T1 sequence (P30291 whole entry): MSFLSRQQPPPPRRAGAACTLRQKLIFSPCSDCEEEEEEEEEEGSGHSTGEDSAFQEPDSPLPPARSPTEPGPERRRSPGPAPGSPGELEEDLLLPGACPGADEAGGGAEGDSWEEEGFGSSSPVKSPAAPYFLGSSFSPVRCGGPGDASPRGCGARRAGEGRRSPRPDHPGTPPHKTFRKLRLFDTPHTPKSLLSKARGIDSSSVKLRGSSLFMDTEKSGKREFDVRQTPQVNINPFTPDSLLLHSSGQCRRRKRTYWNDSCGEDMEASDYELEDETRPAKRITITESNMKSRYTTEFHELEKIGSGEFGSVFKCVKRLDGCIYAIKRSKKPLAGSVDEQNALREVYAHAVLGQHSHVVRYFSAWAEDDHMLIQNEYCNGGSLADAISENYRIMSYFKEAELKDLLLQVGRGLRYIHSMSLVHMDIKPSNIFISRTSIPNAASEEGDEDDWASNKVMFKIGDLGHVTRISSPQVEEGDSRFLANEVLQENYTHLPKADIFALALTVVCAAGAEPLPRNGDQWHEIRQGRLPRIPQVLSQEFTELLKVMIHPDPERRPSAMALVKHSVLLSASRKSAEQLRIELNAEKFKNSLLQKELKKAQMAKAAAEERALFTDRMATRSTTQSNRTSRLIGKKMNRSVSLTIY
T1 sequence (Q96SW2 whole entry): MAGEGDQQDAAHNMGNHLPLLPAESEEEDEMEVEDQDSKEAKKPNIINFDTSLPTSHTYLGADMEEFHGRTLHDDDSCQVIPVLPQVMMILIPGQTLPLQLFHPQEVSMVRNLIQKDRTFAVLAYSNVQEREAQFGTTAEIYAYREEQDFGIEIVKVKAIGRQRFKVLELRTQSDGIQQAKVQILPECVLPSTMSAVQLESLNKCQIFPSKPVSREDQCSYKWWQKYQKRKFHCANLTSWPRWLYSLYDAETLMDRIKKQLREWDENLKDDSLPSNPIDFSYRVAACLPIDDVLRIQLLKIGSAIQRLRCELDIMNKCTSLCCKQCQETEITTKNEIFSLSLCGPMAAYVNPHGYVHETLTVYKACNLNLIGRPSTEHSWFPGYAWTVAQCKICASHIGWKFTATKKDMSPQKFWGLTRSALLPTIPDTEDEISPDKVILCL
T1 sequence (Q16531 whole entry partner): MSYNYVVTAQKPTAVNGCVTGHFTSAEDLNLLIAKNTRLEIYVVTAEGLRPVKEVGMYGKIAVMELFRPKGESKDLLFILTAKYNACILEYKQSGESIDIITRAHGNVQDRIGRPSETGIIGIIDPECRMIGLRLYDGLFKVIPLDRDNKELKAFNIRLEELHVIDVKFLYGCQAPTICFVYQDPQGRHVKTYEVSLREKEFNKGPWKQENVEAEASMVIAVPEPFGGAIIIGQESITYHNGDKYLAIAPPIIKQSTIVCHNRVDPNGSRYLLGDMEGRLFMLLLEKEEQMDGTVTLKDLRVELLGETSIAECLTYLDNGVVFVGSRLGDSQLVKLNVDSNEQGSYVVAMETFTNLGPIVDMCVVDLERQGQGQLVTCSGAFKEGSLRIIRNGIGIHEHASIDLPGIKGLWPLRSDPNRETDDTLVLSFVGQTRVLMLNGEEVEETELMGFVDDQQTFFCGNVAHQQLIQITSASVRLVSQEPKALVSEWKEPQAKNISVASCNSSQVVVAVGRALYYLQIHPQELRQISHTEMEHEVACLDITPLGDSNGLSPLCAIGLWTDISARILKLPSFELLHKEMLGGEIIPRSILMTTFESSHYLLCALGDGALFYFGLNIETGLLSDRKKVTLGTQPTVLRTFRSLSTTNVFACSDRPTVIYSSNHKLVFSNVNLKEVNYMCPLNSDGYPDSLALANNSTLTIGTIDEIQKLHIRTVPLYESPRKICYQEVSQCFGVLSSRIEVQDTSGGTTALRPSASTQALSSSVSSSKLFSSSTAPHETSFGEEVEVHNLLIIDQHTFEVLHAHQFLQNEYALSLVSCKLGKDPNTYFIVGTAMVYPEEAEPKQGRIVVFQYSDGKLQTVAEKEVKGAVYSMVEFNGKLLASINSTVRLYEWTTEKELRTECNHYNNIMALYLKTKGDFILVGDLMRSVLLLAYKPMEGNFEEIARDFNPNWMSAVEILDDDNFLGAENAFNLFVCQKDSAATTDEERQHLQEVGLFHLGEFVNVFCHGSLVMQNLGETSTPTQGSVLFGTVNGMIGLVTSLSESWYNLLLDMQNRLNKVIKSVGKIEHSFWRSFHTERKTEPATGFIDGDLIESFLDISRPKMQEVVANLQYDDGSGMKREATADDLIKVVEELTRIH

SMILES | DC50 (WEE1) [nM] | 293T-LentiX WEE1-ePL Degradation 4 hr YMin (%) (WEE1) | EC50 (MKN45 cells) [nM] | EC50 (MDA-MB-231 cells) [nM] | MKN45 Cell Prolif. 120 hr YMin (%) (MKN45 cells) | MDA-MB 231 Cell Prolif. 120 hr YMin (%) (MDA-MB-231 cells)
O=C1CCC(N2C(=O)c3ccc(O[C@H]4CCN(Cc5cc(F)c6nc(C7CCOCC7)ccc6c5)C4)cc3C2=O)C(=O)N1 (single isomer, unassigned) [Example 11, 2-((S*)-2,6-dioxopiperidin-3-yl)-5-(((S)-1-((8-fluoro-2-(tetrahydro-2H-pyran-4-yl)quinolin-6-yl)methyl)pyrrolidin-3-yl)oxy)isoindoline-1,3-dione] | 4 | 30.4 | 33 | 525 | 12.1 | 53.2
COC[C@@H]1CN(Cc2cc(F)c3nc(C(C)(C)O)ccc3c2)C[C@H]1Oc1ccc2c(c1)CN([C@H]1CCC(=O)NC1=O)C2=O [Example 32, (3S)-3-(5-{[(3S,4S)-1-{[8-fluoro-2-(2-hydroxypropan-2-yl)quinolin-6-yl]methyl}-4-(methoxymethyl)pyrrolidin-3-yl]oxy}-1-oxo-2,3-dihydro-1H-isoindol-2-yl)piperidine-2,6-dione] | 1 | 33.4 | 2 | 67 | 11.2 | 46.8
COC[C@@H]1CN(Cc2cc(F)c3nc(C4CCCCO4)ncc3c2)C[C@H]1Oc1ccc2c(c1)CN([C@H]1CCC(=O)NC1=O)C2=O (relative stereo) [Example 96, rel-(3S)-3-(5-{[(3S,4S)-1-{[8-fluoro-2-(oxan-2-yl)quinazolin-6-yl]methyl}-4-(methoxymethyl)pyrrolidin-3-yl]oxy}-1-oxo-2,3-dihydro-1H-isoindol-2-yl)piperidine-2,6-dione] | 7 | 29.4 | 9 | 123 | 11.4 | 28.4
COC[C@@H]1CN(Cc2cc(F)c3nc(C(=O)N(C)C4CCOCC4)ccc3c2)C[C@H]1Oc1ccc2c(c1)CN([C@H]1CCC(=O)NC1=O)C2=O [Example 117, 6-{[(3S,4S)-3-({2-[(3S)-2,6-dioxopiperidin-3-yl]-1-oxo-2,3-dihydro-1H-isoindol-5-yl}oxy)-4-(methoxymethyl)pyrrolidin-1-yl]methyl}-8-fluoro-N-methyl-N-(oxan-4-yl)quinoline-2-carboxamide] | 2 | 27.5 | 4 | 31 | 9.1 | 40.1

Now from value to compound, other results behind:

DC50 (WEE1) [nM] | 293T-LentiX WEE1-ePL Degradation 4 hr YMin (%) (WEE1) | EC50 (MKN45 cells) [nM] | EC50 (MDA-MB-231 cells) [nM] | SMILES | MKN45 Cell Prolif. 120 hr YMin (%) (MKN45 cells) | MDA-MB 231 Cell Prolif. 120 hr YMin (%) (MDA-MB-231 cells)
1 | 31.3 | 2 | 39 | O=C1CC[C@H](N2Cc3cc(O[C@H]4CCN(Cc5ccc6nc([C@H]7CCO[C@@]8(CCOC8)C7)ccc6c5)C4)ccc3C2=O)C(=O)N1 (relative stereo) [Example 22, rel-(3S)-3-(5-(((3S)-1-((2-(2,6-dioxaspiro[4.5]decan-9-yl)quinolin-6-yl)methyl)pyrrolidin-3-yl)oxy)-1-oxoisoindolin-2-yl)piperidine-2,6-dione] | 10.8 | 42.5
1 | 21.0 | 2 | 42 | COC[C@@H]1CN(Cc2ccc3nc(N4CCN(C(C)=O)C5(COC5)C4)ccc3c2)C[C@H]1Oc1ccc2c(c1)CN([C@H]1CCC(=O)NC1=O)C2=O [Example 90, (3S)-3-(5-{[(3S,4S)-1-[(2-{5-acetyl-2-oxa-5,8-diazaspiro[3.5]nonan-8-yl}quinolin-6-yl)methyl]-4-(methoxymethyl)pyrrolidin-3-yl]oxy}-1-oxo-2,3-dihydro-1H-isoindol-2-yl)piperidine-2,6-dione] | 6.4 | 27.2
